The first experiment concerns the target T1, human full-length MKNK1 (Homo sapiens, UniProt Q9BUB5, T385D).
T1 construct: GST (N); purchased Carna Biosciences 02-145; host or cells: insect cells (baculovirus expression system)
As to the kind of experiment: MKNK1 kinase high ATP assay (TR-FRET). It counts as biochemical.
Conditions: not given
The gist of the method: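 Full-length human MKNK1 (T385D) preincubated 15 min at 22 °C with compound in HEPES pH 7.5/MgCl2/DTT buffer; reaction with 2 mM ATP (final) and 0.06 μM biotinylated peptide (final), 30 min at 22 °C.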
T1 sequence (Q9BUB5 1-424 isoform Q9BUB5-2 T344D): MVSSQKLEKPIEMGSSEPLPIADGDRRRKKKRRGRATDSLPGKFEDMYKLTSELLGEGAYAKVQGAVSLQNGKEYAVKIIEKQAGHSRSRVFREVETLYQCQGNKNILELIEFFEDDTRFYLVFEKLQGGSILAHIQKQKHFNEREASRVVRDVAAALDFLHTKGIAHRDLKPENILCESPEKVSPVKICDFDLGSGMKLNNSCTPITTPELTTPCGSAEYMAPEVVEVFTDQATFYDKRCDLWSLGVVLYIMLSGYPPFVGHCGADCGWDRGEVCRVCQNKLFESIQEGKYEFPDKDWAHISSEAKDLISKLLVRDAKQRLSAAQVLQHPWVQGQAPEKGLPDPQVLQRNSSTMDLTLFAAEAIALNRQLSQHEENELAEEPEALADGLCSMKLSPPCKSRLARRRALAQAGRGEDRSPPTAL
Take `Cc1cc(Nc2ncnc3sc4c(c23)CC[C@H](C(=O)N2CCC(=O)CC2)C4)c(=O)n2c1C(=O)NC21CCCCC1` [Example 10, 8′-Methyl-6′-({(7S)-7-[(4-oxopiperidin-1-yl)carbonyl]-5,6,7,8-tetrahydro[1]benzothieno[2,3-d]pyrimidin-4-yl}amino)-2′H-spiro[cyclohexane-1,3′-imidazo[1,5-a]pyridine]-1′,5′-dione]: inhibition was half-maximal at 0.3 nM (IC50).

Still in this experiment, the particulars now being: TR-FRET, 2 mM ATP (high ATP), 15 min preincubation with enzyme, 30 min reaction at 22° C.; read-out: MKNK1 IC50.
As to `Cc1cc(Nc2ncnc3sc4c(c23)CC[C@H](C(=O)N(C)C)C4)c(=O)n2c1C(=O)N[C@]21CC[C@@](O)(C(F)(F)F)CC1` [Example 60, (7S)-4-{[(cis)-4-Hydroxy-8′-methyl-1′,5′-dioxo-4-(trifluoromethyl)-1′,5′-dihydro-2′H-spiro[cyclohexane-1,3′-imidazo[1,5-a]pyridin]-6′-yl]amino}-N,N-dimethyl-5,6,7,8-tetrahydro[1]benzothieno[2,3-d]pyrimidine-7-carboxamide], the IC50 amounted to 9.5 nM.
Regarding `Cc1cc(Nc2ncnc3sc4c(c23)CC[C@H](C(=O)N2CC[C@H](N(C)C)C2)C4)c(=O)n2c1C(=O)NC21CSC1` [Example 49, 6-{[(7S)-7-{[(3S)-3-(Dimethylamino)pyrrolidin-1-yl]carbonyl}-5,6,7,8-tetrahydro[1]benzothieno[2,3-d]pyrimidin-4-yl]amino}-8-methyl-2H-spiro[imidazo[1,5-a]pyridine-3,3′-thietane]-1,5-dione], the IC50 is 0.5 nM.
On the same count and under the same terms, next, `Cc1cc(Nc2ncnc3sc4c(c23)CC[C@H](C(=O)N2C[C@H]3C[C@@H]2CO3)C4)c(=O)n2c1C(=O)N[C@]21CC[C@@](O)(C(F)(F)F)CC1` [Example 64, (cis)-4-Hydroxy-8′-methyl-6′-({(7S)-7-[(1R,4R)-2-oxa-5-azabicyclo[2.2.1]hept-5-ylcarbonyl]-5,6,7,8-tetrahydro[1]benzothieno[2,3-d]pyrimidin-4-yl}amino)-4-(trifluoromethyl)-2′H-spiro[cyclohexane-1,3′-imidazo[1,5-a]pyridine]-1′,5′-dione]: 3.8 nM; `C[C@@H]1CN(C(=O)[C@H]2CCc3c(sc4ncnc(Nc5cc(Cl)c6n(c5=O)C5(CCCCC5)NC6=O)c34)C2)CCN1C` [Example 80, 8′-Chloro-6′-{[(7S)-7-{[(3R)-3,4-dimethylpiperazin-1-yl]carbonyl}-5,6,7,8-tetrahydro[1]benzothieno[2,3-d]pyrimidin-4-yl]amino}-2′H-spiro[cyclohexane-1,3′-imidazo[1,5-a]pyridine]-1′,5′-dione]: 0.2 nM; `N#CC1CN(C(=O)[C@H]2CCc3c(sc4ncnc(Nc5cc(Cl)c6n(c5=O)C5(CCCC5)NC6=O)c34)C2)C1` [Example 88, 1-{(7S)-4-[(8′-Chloro-1′,5′-dioxo-1′,5′-dihydro-2′H-spiro[cyclopentane-1,3′-imidazo[1,5-a]pyridin]-6′-yl)amino]-5,6,7,8-tetrahydro[1]benzothieno[2,3-d]pyrimidine-7-carbonyl}azetidine-3-carbonitrile]: < 0.1 nM.
On to `O=C1NC2(CCCC2)n2c1c(Cl)cc(Nc1ncnc3sc4c(c13)CC[C@H](C(=O)O)C4)c2=O` [Example 84, (7S)-4-[(8′-Chloro-1′,5′-dioxo-1′,5′-dihydro-2′H-spiro[cyclopentane-1,3′-imidazo[1,5-a]pyridin]-6′-yl)amino]-5,6,7,8-tetrahydro[1]benzothieno[2,3-d]pyrimidine-7-carboxylic acid], for which the half-inhibitory concentration (IC50) was found to be 1 nM.
Still for that read-out and setting: the figure for `C[C@@H]1CN(C(=O)[C@H]2CCc3c(sc4ncnc(Nc5cc(Cl)c6n(c5=O)C5(CCC5)NC6=O)c34)C2)CCN1C` [Example 100, 8′-Chloro-6′-({(7S)-7-[(3R)-3,4-dimethylpiperazine-1-carbonyl]-5,6,7,8-tetrahydro[1]benzothieno[2,3-d]pyrimidin-4-yl}amino)-2′H-spiro[cyclobutane-1,3′-imidazo[1,5-a]pyridine]-1′,5′-dione] is 0.1 nM.
On to `Cc1cc(Nc2ncnc3sc4c(c23)CC[C@H](C(=O)N2CC(N(C)C)C2)C4)c(=O)n2c1C(=O)NC21CCC1` [Example 23, 6′-{[(7S)-7-{[3-(Dimethylamino)azetidin-1-yl]carbonyl}-5,6,7,8-tetrahydro[1]benzothieno[2,3-d]pyrimidin-4-yl]amino}-8′-methyl-2′H-spiro[cyclobutane-1,3′-imidazo[1,5-a]pyridine]-1′,5′-dione], for which the IC50 stood at 0.4 nM.
On to `Cc1cc(Nc2ncnc3sc4c(c23)CC[C@H](C(=O)N2CC(C#N)C2)C4)c(=O)n2c1C(=O)NC21CSC1` [Example 47, 1-({(7S)-4-[(8-Methyl-1,5-dioxo-1,5-dihydro-2H-spiro[imidazo[1,5-a]pyridine-3,3′-thietan]-6-yl)amino]-5,6,7,8-tetrahydro[1]benzothieno[2,3-d]pyrimidin-7-yl}carbonyl)azetidine-3-carbonitrile], for which the IC50 came to 0.8 nM.
The same measure, in the same setting: next, `Cc1cc(Nc2ncnc3sc4c(c23)CC[C@H](C(=O)N2CC(N)C2)C4)c(=O)n2c1C(=O)NC21CCCCC1` [Example 11, 6′-({(7S)-7-[(3-Aminoazetidin-1-yl)carbonyl]-5,6,7,8-tetrahydro[1]benzothieno[2,3-d]pyrimidin-4-yl}amino)-8′-methyl-2′H-spiro[cyclohexane-1,3′-imidazo[1,5-a]pyridine]-1′,5′-dione]: 0.5 nM.
On the same count and under the same terms, the figure for `NC(=O)[C@H]1CCc2c(sc3ncnc(Nc4cc(Cl)c5n(c4=O)C4(CCC4)NC5=O)c23)C1` [Example 94, (7S)-4-[(8′-Chloro-1′,5′-dioxo-1′,5′-dihydro-2′H-spiro[cyclobutane-1,3′-imidazo[1,5-a]pyridin]-6′-yl)amino]-5,6,7,8-tetrahydro[1]benzothieno[2,3-d]pyrimidine-7-carboxamide] is 0.2 nM; for `CC1(C)NC(=O)c2c(Cl)cc(Nc3ncnc4sc5c(c34)CC[C@H](C(N)=O)C5)c(=O)n21` [Example 110, (7S)-4-[(8-Chloro-3,3-dimethyl-1,5-dioxo-1,2,3,5-tetrahydroimidazo[1,5-a]pyridin-6-yl)amino]-5,6,7,8-tetrahydro[1]benzothieno[2,3-d]pyrimidine-7-carboxamide] it is 1.2 nM; for `CN(C)[C@H]1CCN(C(=O)[C@H]2CCc3c(sc4ncnc(Nc5cc(Cl)c6n(c5=O)C(C)(C)NC6=O)c34)C2)C1` [Example 114, 8-Chloro-6-({(7S)-7-[(3S)-3-(dimethylamino)pyrrolidine-1-carbonyl]-5,6,7,8-tetrahydro[1]benzothieno[2,3-d]pyrimidin-4-yl}amino)-3,3-dimethyl-2,3-dihydroimidazo[1,5-a]pyridine-1,5-dione] it is < 0.1 nM.
Still for that read-out and setting: next, `Cc1cc(Nc2ncnc3sc4c(c23)CC[C@H](C(=O)N2CC(N(C)C)C2)C4)c(=O)n2c1C(=O)NC21CS(=O)(=O)C1` [Example 69, 6-{[(7S)-7-{[3-(Dimethylamino)azetidin-1-yl]carbonyl}-5,6,7,8-tetrahydro[1]benzothieno[2,3-d]pyrimidin-4-yl]amino}-8-methyl-2H-spiro[imidazo[1,5-a]pyridine-3,3′-thietane]-1,5-dione 1′,1′-dioxide]: 2 nM; `NC(=O)[C@H]1CCc2c(sc3ncnc(Nc4cc(Cl)c5n(c4=O)C4(CCCCC4)NC5=O)c23)C1` [Example 74, (7S)-4-[(8′-Chloro-1′,5′-dioxo-1′,5′-dihydro-2′H-spiro[cyclohexane-1,3′-imidazo[1,5-a]pyridin]-6′-yl)amino]-5,6,7,8-tetrahydro[1]benzothieno[2,3-d]pyrimidine-7-carboxamide]: 0.9 nM.
